The text below walks through data of US11992011B2, “Compounds for controlling plant pathogens” (VIB VZW, priority 2017, dated 2024).

Type in all cases: in vivo
For series [1], the system named is Meloidogyne graminicola. The series can be described thus: Meloidogyne graminicola infection in rice, second experiment (Example 4). Conditions: infected rice, 100 μM; for median number of galls lower compared to untreated controls: 13 days after infection; for plants in which necrosis was present: absent in control plants; for Gall number: harvested 13 days after inoculation; for Gall number / Fraction of empty galls / Galls per adventitious root / Number of J2 / Number of J3 + J4 / Number of adults (with eggs) / Number of adults (without eggs) / Total nematodes: median (IQR); for Likelihood of necrosis: value ± spread. On the procedure: Seeds were germinated on wet tissue paper at 30° C. in the dark for three days, followed by transfer to individual PVC tubes (for nematode infection) containing SAP (Reversat et al., 1999). SAP (sand-absorbent polymer) is a mixture of fine silica sand and ultra-absorbent acrylic copolymer (DCM AquaPerla, DSM, Grobbendonk, Belgium) in a ratio of 1 kg sand to 1.5 g of dry copolymer.
Before use, each tube was washed in soapy water and dried in an oven at 70° C. for two days. […] The first two days after transfer, the tubes were covered with a polyethylene film (Saran Film, Dow Chemicals, Midland, USA) to prevent excessive evaporation. Seedlings were watered three times per week with 8 ml of Hoagland solution (Hoagland, 1938).
M. graminicola was extracted from infected Echinocloa crus-galli roots grown in potting soil at 25° C. Roots were washed until most soil was removed, after which they were cut into short fragments (with special care taken to cut open any outwardly visible galls). The cut material was put in […] pore diameter sieves which were put into a tap water bath at room temperature for three days. The water was then poured over a […] mesh sieve. The sieve surface was washed with approximately 50 ml of non-demineralized water, which was collected into a beaker before it could seep through the sieve.
The number of nematodes in five 100 μl samples taken from the nematode suspension was counted under a stereo microscope and averaged to determine inoculum concentration. Each plant (grown per the protocol outlined in the previous section) was then inoculated by injecting the desired number of nematodes in the SAP surrounding the root system using a micro-pipette.
Infection experiments with M. graminicola were performed by inoculating host plants 14 days after transfer to SAP by introducing the desired amount of J2 juveniles next to the root system using a micro pipette. Rice plants (cv. Nipponbare or Kitaake) were inoculated with 250 J2 juveniles per plant; wheat plants (cv. Sahara) were inoculated with 600 J2 juveniles per plant. Plants were harvested 14 days after inoculation. At this point, the plants were phenotyped by measuring the shoot and root length with a ruler, counting the number of adventitious roots and in some experiments by measuring leaf area using the EasyLeafArea software (Easlon and Bloom, 2014) and by determining shoot dry mass after 72 hours of drying in an oven at 70° C. Root systems were then stained in acid fuchsine as described in (Byrd et al., 1983) and left to destain in glycerol with 1 ml/l fuming HCl added for approximately ten days. The number of galls and nematodes was then counted using a binocular microscope. […]
The second experiment was methodologically similar to the first. This time, plants were grown for 15 days before inoculation with 210 nematodes on average and harvested 13 days after inoculation. […]

For series [2], the system named is Meloidogyne graminicola. Description: Application regimens of PA, rice - Meloidogyne graminicola (Example 8). As for the experimental part:
Seed coatings were applied by dipping seeds in a coating solution containing 20 g/I high viscosity carboxymethylcellulose (Sigma-Aldrich, Saint Louis, USA) in distilled water as well as 300 μM of the target compound. Seeds were then dried overnight at room temperature.
Infection experiments with M. graminicola were performed by inoculating host plants 14 days after transfer to SAP by introducing the desired amount of J2 juveniles next to the root system using a micro pipette. Rice plants (cv. Nipponbare or Kitaake) were inoculated with 250 J2 juveniles per plant; wheat plants (cv. Sahara) were inoculated with 600 J2 juveniles per plant. Plants were harvested 14 days after inoculation. At this point, the plants were phenotyped by measuring the shoot and root length with a ruler, counting the number of adventitious roots and in some experiments by measuring leaf area using the EasyLeafArea software (Easlon and Bloom, 2014) and by determining shoot dry mass after 72 hours of drying in an oven at 70° C. Root systems were then stained in acid fuchsine as described in (Byrd et al., 1983) and left to destain in glycerol with 1 ml/l fuming HCl added for approximately ten days. The number of galls and nematodes was then counted using a binocular microscope.
Four application regimes for PA on the rice-Meloidogyne graminicola interaction were compared: a seed coating treatment, a single high-dose foliar spray prior to infection, a single high-dose foliar spray after infection and repeated lower-dose foliar sprays throughout the growing period.
One hundred rice seeds (cv. Nipponbare) were randomly divided into five groups of twenty seeds: a control group, seeds that were coated with carboxymethylcellulose containing 300 μM PA (PA coating), a group that would be foliarly sprayed with 100 μM PA solution three times per week (PA continuous), a group that would be sprayed once with a 300 μM PA solution one day prior to nematode inoculation (PA−1 dpi) and a group that would be sprayed once with a 300 μM PA solution seven days after nematode inoculation (PA+7 dpi).
The experiment was carried out as per the materials and methods described in Materials and Methods, sections Oryza sativa (rice) and Meloidogyne graminicola culture.

The test system of series [3] is Meloidogyne incognita. The series can be described thus: M. incognita infection in NahG-expressing tomato (Example 17). As for the experimental part: Infection experiments with M. incognita were performed in the same manner as those with M. graminicola, except that plants were harvested 31 days after inoculation instead of 14 days. At this point, the plants were phenotyped by measuring the root length with a ruler and in some experiments by measuring leaf area using the EasyLeafArea software (Easlon and Bloom, 2014) and by determining shoot dry mass after 72 hours of drying in an oven at 70° C. Galls were stained and counted as described above.
To evaluate this further, a tomato line deficient in salicylic acid biosynthesis and signaling respectively was treated with PA. […] If this line still responds to PA, it further strengthens the notion that salicylic acid accumulation is not the cause of C4H inhibitor-induced nematode resistance, for which evidence in rice was already provided in Example 16.

Series [4] has as its system Arabidopsis thaliana seedlings. Description: Primary root elongation of Arabidopsis thaliana seedlings (IC50-root). Conditions: continuous exposure, unpublished data.
Where [5] appears, read: PA +7 dpi: sprayed once with 300 μM PA seven days after inoculation, n = 8.
[6] abbreviates: PA coating: seeds coated with carboxymethylcellulose solution containing 300 μM PA, n = 7.
[7] abbreviates: PA continuous: sprayed three times a week with 100 μM PA, n = 9.
The mark [8] stands for this setting: PA −1 dpi: sprayed once with 300 μM PA one day before inoculation, n = 8.

With `O=C(O)/C=C/c1ccc2c(c1)OCO2` [MDCA, 3,4-methylenedioxycinnamic acid], in series [1], the “median number of galls lower compared to untreated controls” value is recorded as 28%, the “plants in which necrosis was present” value is recorded as “roughly 75%”, the Gall number is on record as 8.0 (IQR = 1.0) and the “Fraction of empty galls” value is listed as 0.11 (IQR = 0.03). Besides, in series [1], the “Galls per adventitious root” value is given as 0.80 (IQR = 0.17), the “Number of J2” value is given as 0.0 (IQR = 0.0), the “Number of J3 + J4” value is recorded as 7.0 (IQR = 5.0) and the “Number of adults (with eggs)” value was 0.0 (IQR = 1.0). Moreover, in series [1], the “Number of adults (without eggs)” value is reported as 10.0 (IQR = 2.0), the Total nematodes was 17.0 (IQR = 5.0) and the Likelihood of necrosis is listed as 0.78 ± 0.44.

One may read the IC50 as the concentration at which inhibition is half-maximal. Higher therefore signals weaker potency. With `O=C(O)c1ccc2c(c1)OCO2` [PA, Piperonylic acid], in series [1], the “median number of galls lower compared to untreated controls” value came out at 36%, the “plants in which necrosis was present” value is listed as “roughly 75%”, the Gall number is recorded as 7.0 (IQR = 1.8) and the “Fraction of empty galls” value is reported as 0.13 (IQR = 0.17). Besides, in series [1], the “Galls per adventitious root” value is recorded as 0.62 (IQR = 0.13), the “Number of J2” value is on record as 0.0 (IQR = 1.0), the “Number of J3 + J4” value was 8.0 (IQR = 2.5) and the “Number of adults (with eggs)” value is recorded as 0.0 (IQR = 0.0). Besides, in series [1], the “Number of adults (without eggs)” value is on record as 5.0 (IQR = 1.8), the Total nematodes was 13.5 (IQR = 2.5) and the Likelihood of necrosis was found to be 0.70 ± 0.48. In series [2] (setting [5]), the “Fraction of small galls” value stood at 0.91 ± 0.11, the Number of galls was 18.1 ± 13.6 and the “Number of galls per AR” value came to 1.1 ± 0.6. In series [2] (setting [6]), the “Fraction of small galls” value is given as 0.96 ± 0.04, the Number of galls worked out at 19.0 ± 11.0 and the “Number of galls per AR” value is reported as 1.3 ± 0.8. In series [2] (setting [7]), the “Fraction of small galls” value was found to be 0.95 ± 0.08, the Number of galls turned out to be 18.1 ± 13.1 and the “Number of galls per AR” value amounted to 1.2 ± 0.7. The “mortality of seedlings from seeds coated with PA” value in series [2] (PA seed coating, two out of ten in the control group, not statistically significant) is “four of ten”. For the same molecule, in series [2] (setting [8]), the “Fraction of small galls” value was 0.91 ± 0.06, the Number of galls is recorded as 25.3 ± 9.4 and the “Number of galls per AR” value came out at 1.4 ± 0.5. Also, in series [3] (NahG-expressing (SA-deficient) tomato), the “change of number of galls, PA-treated NahG plants vs untreated wild type plants” value is recorded as −36%. In addition, the “difference in number of galls, PA-treated NahG plants vs PA-treated wild type plants” value in series [3] (NahG-expressing tomato, not significant) is given as “+9%”. This molecule also gave an IC50 in series [4] of 40 µM.
